Test results taken from article PMC6511062, “Preclinical candidate for the treatment of visceral leishmaniasis that acts through proteasome inhibition” (Proceedings of the National Academy of Sciences of the …, 2019).

Experiments:
[1] = Pharmacokinetics in male CD-1 mice; assay type: in vivo, mouse
Procedure: 5. Intrinsic clearance (CLint) […]
6. Pharmacokinetic studies.
Mouse pharmacokinetic studies were conducted in male CD-1 mice and male beagle dogs. 3 animals per group were used for each study performed.
A dose of 3 mg/kg was administered intravenously, in a bolus form to mice and infused over a 30 min period to dogs. For all the intravenous studies compound were dissolved in 5% DMSO/20% kleptose in saline.
A dose of 10 mg/kg was orally administered by gavage to the two species in a suspension of 1% methylcellulose to investigate oral pharmacokinetics.
Peripheral blood samples were obtained at 5, 15, 30 min, 1, 2, 4, 6 ,8 and 24 h after intravenous administration and 15, 30, 45 min,1, 2, 4, 6, 8 and 24 h after oral administration. Blood was 1/2 diluted with milliQ water and immediately frozen on dry ice until analysis. Quantification was performed by means of LC-MS/MS (API4000), with a lower limit of quantification of 1 ng/mL.
Pharmacokinetic parameters, namely clearance (CL), volume of distribution at steady state (Vss) and bioavailability (F%), were estimated using Phoenix, WinNonLin […]
(§1) Data analysis and calculation of pharmacokinetic parameters was performed using Phoenix, WinNonLin Version 6.3.
Following the intravenous administration, the whole blood clearance was calculated

[2] = Pharmacokinetics in male Sprague Dawley rats; assay type: in vivo; settings: rat
Procedure: Male Sprague Dawley rats (n=3) were dosed either intravenously at a target dose of 3 mg/kg or orally at a target dose of 10, 30, 100 and 300 mg/kg. Following discrete intravenous tail vein dosing from a solution of 5% DMSO/20% kleptose in saline, serial blood samples (~10 µl) were taken via lateral tail vein at 0.01, 0.05, 0.08, 0.25, 0.5, 1, 2, 4, 6, 8 and 24 h post dose and 1/9 diluted with miliQ water, frozen on dry ice, then stored at approximately –20 °C or below until analysis.
Following discrete oral gavage dosing from a suspension of 1% methyl cellulose at target doses of 10, 30, 100 and 300 mg/kg, respectively, serial blood samples (10 µl) were taken via lateral tail vein at 0.08, 0.25, 0.5, 0.75, 1, 2, 4, 6, 8 and 24 h post dose and 1/9 diluted with miliQ water, frozen on dry ice, then stored at approximately –20°C […]
Samples were analyzed for parent compound using a method based on protein precipitation followed by UPLC-MS/MS.
Pharmacokinetic parameters, namely clearance (CL), volume of distribution at steady state (Vss) and bioavailability (F%), were estimated using Phoenix, WinNonLin 6.3.
as §1
Following the intravenous administration, the whole blood clearance was calculated by determining the dose administered to each animal and dividing by the AUC0-∞ . The estimate of the volume of distribution at steady state (VSS) was calculated as MRT*CL, where MRT is the mean residence time, calculated by AUMC0-∞ /AUC0-∞.
For both intravenous and oral administration, the systemic exposures were determined by calculating the area under the blood concentration time curve (AUC) from the start of dosing to the last observed quantifiable concentration (AUC0-t) by using the linear up-log down trapezoidal rule. The slope of the terminal elimination phase was estimated by linear regression of the terminal data points (minimum 3 points) from a natural log concentration versus time plot of the data. The half-life (t1/2) of the terminal elimination phase was calculated as t1/2 = 0.693/λ. […]

[3] = male, CD-1, whole blood, mouse, 3 mg/kg iv bolus
[4] = male, Sprague Dawley, whole blood, 3 mg/kg iv bolus

With `O=C(Nc1ccc(F)c(-c2ccn3c(N4CCOCC4)cnc3n2)c1)N1CCCC1` [Compound 8] the clearance [1, 3] was 40.7 ± 13.6 mL/min/kg, the half-life [1, 3] was 39 ± 19.2 min and the Vd ([1]; male, CD-1, whole blood, mouse, 3 mg/kg iv bolus, read-out: Vss) was 2.2 L/kg. The blood clearance ([1]; mouse) was 41 mL/min per kilogram, the “Cl (%LBF)” value ([1]; mouse, 3 mg/kg iv) was 32% and the bioavailability ([1]; whole blood, CD-1 male mouse, 10 mg/kg po, read-out: F (oral bioavailability)) was 18%. For the same molecule, the bioavailability ([2]; male, Sprague Dawley, whole blood, po, 10 mg/kg, SD male rat, 10 mg/kg po, read-out: F (oral bioavailability)) was 36%, the clearance [2, 4] was 17 ± 5.2 mL/min/kg and the half-life [2, 4] was 42 ± 8.4 min. The Vd ([2]; male, Sprague Dawley, whole blood, 3 mg/kg iv bolus, read-out: Vss) was 1 L/kg, the blood clearance [2] was 17 mL/min per kilogram and the “Cl (%LBF)” value ([2]; 3 mg/kg iv) was 22%.
